In paper PMC4742234, “Screening of Drug Metabolizing Enzymes for the Ginsenoside Compound K In Vitro: An Efficient Anti-Cancer Substance Originating from Panax Ginseng” (PLoS ONE, 2016):
“And” between values parts separate entries of the source, which are not always exact repeats. Equal entries are not always repeated.

Legend:
CYP3A4 [1] = system: CYP3A4; design: method as in Hao et al.(2008); conditions: baculosomes, ref Hao et al.(2008); cited from earlier work
CYP2C9 = CYP2C9 (Homo sapiens, UniProt P11712); assay: Kinetic analysis of CK metabolism by recombinant CYP2C9; assay type: in vitro ADME; design: purchased Cypex Ltd. (U.K.); conditions: recombinant CYP2C9 10 pmol, CK 10–100 μM
CYP2C9, sequence (P11712 whole entry, canonical isoform): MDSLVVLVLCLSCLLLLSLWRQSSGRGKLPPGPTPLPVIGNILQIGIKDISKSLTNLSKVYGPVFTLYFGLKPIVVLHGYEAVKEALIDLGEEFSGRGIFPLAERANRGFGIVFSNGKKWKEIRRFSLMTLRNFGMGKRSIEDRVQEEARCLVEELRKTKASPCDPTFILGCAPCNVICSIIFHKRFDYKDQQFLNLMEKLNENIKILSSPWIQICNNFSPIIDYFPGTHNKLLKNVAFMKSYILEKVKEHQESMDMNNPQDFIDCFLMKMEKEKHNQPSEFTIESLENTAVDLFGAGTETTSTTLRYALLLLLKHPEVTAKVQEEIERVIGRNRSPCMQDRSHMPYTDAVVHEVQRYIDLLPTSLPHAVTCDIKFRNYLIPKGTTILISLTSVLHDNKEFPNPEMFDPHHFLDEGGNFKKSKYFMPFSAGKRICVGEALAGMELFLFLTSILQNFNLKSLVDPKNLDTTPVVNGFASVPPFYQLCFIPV
Method: The method was conducted according to our previous study with some modifications. The CYP isoform-specific probe reactions used were phenacetin O-deethylation (for CYP1A2), coumarin 7-hydroxylation (for CYP2A6), tolbutamide 4-hydroxylation (for CYP2C9), metoprolol α-hydroxylation (for CYP2D6), chlorzoxazone 6-hydroxylation (for CYP2E1),S-Mephenytoin 4-hydroxylation (for CYP2C19), and midazolam 1-hydroxylation (for CYP3A4). The kinetic study of CK was conducted with HLMs. A 0.2 mL incubation mixture that consisted of CK (as a substrate), the HLMs (0.5 mg/mL) or CYP isoforms (10 pmol), and 0.1 M sodium phosphate buffer (pH 7.4) was pre-warmed for 5 min at 37°C. The reaction was initiated by the addition of 1 mg/mL triphosphopyridine nucleotide (NADPH). […]
The kinetic parameters for the metabolism of CK were determined by incubating increasing concentrations of CK (10–100 μM) at 37°C with the HLMs and NADPH under the incubation conditions as described in detail previously. The equation of CK reaction velocity (V) in the HLMs or CYP isoforms is expressed as V = (C0–Ct)/T/Cp, where C0and Ct are the initial and final concentrations of CK in the incubation solution, respectively, T is the incubation time (min), and Cp is the protein concentration (mg/mL or nmol). All values were expressed as the mean±standard deviation (SD). […]

CYP3A4 [2] = molecular target: CYP3A4 (Homo sapiens, UniProt P08684); assay: Inhibition of CYP3A4 (midazolam 1-hydroxylation) by CK in HLMs; assay type: in vitro ADME; design: tissue Cypex Ltd. (U.K.); host or cells: pooled human liver microsomes
CYP3A4 (Homo sapiens, UniProt P08684), sequence (P08684 whole entry, canonical isoform): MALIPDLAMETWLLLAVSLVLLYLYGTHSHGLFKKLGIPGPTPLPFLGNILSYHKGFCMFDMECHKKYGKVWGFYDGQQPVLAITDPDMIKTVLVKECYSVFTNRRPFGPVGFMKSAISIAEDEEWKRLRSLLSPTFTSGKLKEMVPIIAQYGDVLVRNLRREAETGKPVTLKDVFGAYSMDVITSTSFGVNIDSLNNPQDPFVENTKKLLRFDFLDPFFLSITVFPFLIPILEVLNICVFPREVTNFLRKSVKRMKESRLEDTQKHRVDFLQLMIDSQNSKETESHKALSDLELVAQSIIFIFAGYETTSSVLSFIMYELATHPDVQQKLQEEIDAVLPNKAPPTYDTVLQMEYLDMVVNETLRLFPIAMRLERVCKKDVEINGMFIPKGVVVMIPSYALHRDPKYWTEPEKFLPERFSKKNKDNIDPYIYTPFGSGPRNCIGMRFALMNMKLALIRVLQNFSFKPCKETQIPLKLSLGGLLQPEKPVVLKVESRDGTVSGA
Method: The method was conducted according to our previous study with some modifications. The CYP isoform-specific probe reactions used were phenacetin O-deethylation (for CYP1A2), coumarin 7-hydroxylation (for CYP2A6), tolbutamide 4-hydroxylation (for CYP2C9), metoprolol α-hydroxylation (for CYP2D6), chlorzoxazone 6-hydroxylation (for CYP2E1),S-Mephenytoin 4-hydroxylation (for CYP2C19), and midazolam 1-hydroxylation (for CYP3A4). The kinetic study of CK was conducted with HLMs. A 0.2 mL incubation mixture that consisted of CK (as a substrate), the HLMs (0.5 mg/mL) or CYP isoforms (10 pmol), and 0.1 M sodium phosphate buffer (pH 7.4) was pre-warmed for 5 min at 37°C. The reaction was initiated by the addition of 1 mg/mL triphosphopyridine nucleotide (NADPH). All the reagents were dissolved in methanol, and the final solvent concentration in all incubations (including the controls) was 1%. The final incubations were performed in a shaking water bath (37°C) for 30 min. The reactions were stopped by adding 0.2 mL ice-cold acetonitrile, which contains irbesartan (114.9 ng/mL) as the internal standard. The samples were vortexed for 5 min. After centrifugation (12000×g for 10 min), the supernatants were transferred, and aliquots of 20 μL were injected into the HPLC-MS/MS system for analysis.
CK (10–100 μM) and a single CYP isoform-specific substrate (with a concentration similar to its corresponding Kmvalue) were used to determine the inhibitory effect of CK on specific CYP isoforms as described in detail previously. Substrates including phenacetin, coumarin, tolbutamide, metoprolol, chlorzoxazone, S-Mephenytoin, and midazolam were used at concentrations of 10, 5, 100, 7.5, 40, 100, and 5 μM, respectively. All incubation conditions were the same as mentioned above. The inhibitory effects on the CYP isoforms were investigated individually by incubating the HLMs in the absence or presence of CK. The incubation solution with the solvent that was used to dissolve CK was regarded as the negative control, and the solutions containing the specific inhibitors mentioned above were considered the positive controls.
The inhibition data obtained from the pilot experiments were used as a guide to generate the appropriate probe substrate and test inhibitor concentrations for the determination of the Ki values for each CYP isoform. The isoform-specific probe substrate concentrations used were 25–200 μM tolbutamide for CYP2C9 and 5–50 μM midazolam for CYP3A4. The CK concentrations used were 10–100 μM.
When Ki>Ki’, the intersection was above the [I] axis in the plot of S/V against [I] and below it in the Dixon plot; the opposite was true if Ki<Ki’. In the special case where Ki = Ki’ (simple non-competitive inhibition), the intersections occurred on the [I] axis in both plots. The asymptotic cases of competitive and uncompetitive inhibition can be generated by inserting the conditions Ki’ to ∞ for competitive inhibition, or Ki to ∞ for uncompetitive inhibition.
As described in detail previously, to determine the major enzymes responsible for the CK metabolism in HLMs, the metabolic clearance rate of the incubation solution without any specific inhibitor for CK was considered as 100%. The effects of the specific inhibitors on the metabolic clearance rate of CK were evaluated with SPSS one-way analysis of variance (SPSS Inc., Chicago, IL, USA). P<0.05 was considered significant in all cases. The apparent kinetic parameters of CK (Km and Vmax) were determined by fitting the Michaelis–Menten equation using the GraphPad Prism Enzyme Kinetic 5 Demo software (GraphPad Co. Ltd, San Diego, CA, USA).

[3] = CYP3A4 in HLMs, ketoconazole values ref 17

CC(C)=CCC[C@](C)(OC1O[C@H](CO)[C@@H](O)[C@H](O)[C@H]1O)[C@H]1CC[C@]2(C)[C@@H]1[C@H](O)C[C@@H]1[C@@]3(C)CC[C@H](O)C(C)(C)[C@@H]3CC[C@]12C (stereo partly drawn) [CK, 20-O-β-(D-glucopyranosyl)-20(S)-protopanaxadiol]
CYP3A4 inhibition (CYP3A4 [1]): moderate | Vmax of CK metabolism (CYP2C9): 0.45±0.05 nmol/nmol P450/min and 0.4537 nmol/nmol P450/min | IC50 of CK higher than that of ketoconazole (CYP3A4 [2]; [3]): 41-123 fold | Ki of CK higher than that of ketoconazole (CYP3A4 [2]; [3]): 761 fold | type of inhibition of CYP3A4 (CYP3A4 [2]; HLMs, Dixon and S/V versus [I] plots): noncompetitive | IC50 (CYP3A4 [2]; HLMs, midazolam 1-hydroxylation, midazolam 5 μM, CK 10–100 μM): 9.83 µM and 9.82 µM | Ki (CYP3A4 [2]; HLMs, midazolam 5–50 μM, secondary plot of Lineweaver–Burk slopes): 11.4 µM | inhibitor potency class for CYP3A4 (CYP3A4 [2]; classified by IC50 according to Kong et al): potent (potent, if IC50≤ 20 μg/mL or ≤10 μM)
